Experiments:
[1] = PET scan of brain uptake and distribution after i.v. bolus injection; assay type: in vivo, Danish Landrace pigs; conditions: pig, 90 minutes HRRT PET scan
Procedure: Five Danish Landrace pigs were PET scanned in a high-resolution research tomography (HRRT) scanner after i.v. bolus injection of Compound 1 at t=0 mins. Points and connecting line indicate regional radioactive concentration normalized to injected dose per kg body weight, i.e. standardized uptake values (SUV).
(§1) Compound 1 was given as an intravenous bolus injection to a total of five Danish Landrace pigs, and the pigs were subsequently scanned for 90 minutes in a high resolution research tomography (HRRT) PET scanner. Hereafter, the pigs were re-scanned after pre-treatment with cold ligand, either Compound 1 (10 mg/kg, iv) or SSR180711 (1 mg/kg or 10 mg/kg, iv).
Pre-treatment with Compound 1 and SSR180711 lead to a decline in the distribution volumes (VT) of Compound 1 as determined with logan plot kinetic modelling.

[2] = target: T1, nicotinic α7 acetylcholine receptor (Sus scrofa, UniProt F1SNR6); experiment: Distribution volumes (VT) of Compound 1 in pig brain by PET, baseline vs pre-treatment; assay type: in vivo; design: nicotinic α7 acetylcholine receptor in the pig brain; from tissue; host or cells: brain of living pigs (in vivo PET); conditions: for change of distribution volume (VT) of Compound 1 tracer following pre-treatment: pig brain, Logan plot kinetic modelling, pre-treatment 10 mg/kg Compound 1 or 1 or 10 mg/kg SSR180711 i.v.
T1 sequence (F1SNR6 20-499): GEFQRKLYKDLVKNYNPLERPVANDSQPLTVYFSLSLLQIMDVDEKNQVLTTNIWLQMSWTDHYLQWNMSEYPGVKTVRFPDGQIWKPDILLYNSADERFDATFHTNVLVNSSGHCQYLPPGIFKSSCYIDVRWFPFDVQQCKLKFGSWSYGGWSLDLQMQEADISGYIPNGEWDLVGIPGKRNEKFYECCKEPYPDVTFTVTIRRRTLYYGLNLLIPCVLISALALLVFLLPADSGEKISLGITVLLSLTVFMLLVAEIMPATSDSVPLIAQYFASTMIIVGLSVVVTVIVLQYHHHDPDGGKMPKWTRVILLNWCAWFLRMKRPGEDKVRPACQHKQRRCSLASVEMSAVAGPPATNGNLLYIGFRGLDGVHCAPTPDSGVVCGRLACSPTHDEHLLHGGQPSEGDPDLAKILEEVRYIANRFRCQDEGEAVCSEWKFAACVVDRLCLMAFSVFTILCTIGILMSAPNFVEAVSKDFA
Procedure: The distribution volumes are determined in the pig brain at baseline, or following pre-treatment with either Compound 1 or SSR180711.
Five pigs were PET scanned at baseline with Compound 1 in the HRRT scanner. Subsequently, the pigs were administered either 10 mg/kg Compound 1 or SSR180711 (1 mg/kg or 10 mg/kg, i.v.), and 30 minutes or 4 hours later, the pigs were scanned a second time using the same PET protocol.
VT is a measure of concentrations of Compound 1 in a given region relative to the plasma concentration. VT was calculated by kinetic modelling using Logan plot linearization. All kinetic modelling was done in PMOD version 3.0 (PMOD technologies, Inc.).

[3] = target: T1, nicotinic α7 acetylcholine receptor; experiment: Receptor occupancy by PET (occupancy plotting of logan plot VT) after pre-treatment with cold ligand; assay type: in vivo, Danish Landrace pigs; design: nicotinic α7 acetylcholine receptor in the pig brain; from tissue; host or cells: brain of living Danish Landrace pigs (in vivo PET); conditions: for occupancy of nicotinic α7 acetylcholine receptors: pre-treatment 10 mg/kg iv Compound 1 (cold ligand)
Procedure: as §1

Compound: 2-(1,4-Diazabicyclo[3.2.2]nonan-4-yl)-5-(1-[^11C]methylpyrrol-2-yl)-1,3,4-oxadiazole [Compound 1]
- brain entry and regional distribution [1]: entered into the pig brain, and the distribution was mainly found in the cerebral cortex and the thalamus
- binding to nicotinic α7 acetylcholine receptor in the pig brain ([2]; concluded from VT decrease after pre-treatment): binds specifically and selectively
- change of distribution volume (VT) of Compound 1 tracer following pre-treatment [2]: decreased
- occupancy of nicotinic α7 acetylcholine receptors ([3]; inter-scan interval 4 hours): 43%
- occupancy of nicotinic α7 acetylcholine receptors ([3]; second scan 30 minutes after pre-treatment): 81%

Compound: O=C(Oc1ccc(Br)cc1)N1CCN2CCC1CC2 [SSR180711, 1,4-Diazabicyclo[3.2.2]nonane-4-carboxylic acid, 4-bromophenyl ester]
- change of distribution volume (VT) of Compound 1 tracer following pre-treatment [2]: decreased
- receptor occupancy at 1 mg/kg ([3]; pig, iv, pre-treatment 1 mg/kg iv SSR180711, tracer Compound 1, read-out: occupancy of nicotinic α7 acetylcholine receptor in the pig brain): 52%
- receptor occupancy at 10 mg/kg ([3]; pig, iv, pre-treatment 10 mg/kg iv SSR180711, tracer Compound 1, two values 'respectively', read-out: occupancy of nicotinic α7 acetylcholine receptor in the pig brain): 70%
- occupancy of nicotinic α7 acetylcholine receptor in the pig brain ([3]; pre-treatment 10 mg/kg iv SSR180711, tracer Compound 1, two values 'respectively'): 59%
